Patent publication US20230398109A1, “USE OF PQQ AND DERIVATIVE THEREOF” (GUANGZHOU HUTONGYOUWU BIOTECHNOLOGY CO., LTD, priority 2021, published 2023)

Experiments:
Assay type in all cases: in vivo, human
[1] = tested on: patients with menstrual abnormalities; assay: Treatment of patients with abnormal menstruation, oral PQQ vs placebo, 3 months; details: experimental group
Experimental: Experiment number: 100 peoples diagnosed with menstrual abnormalities, 50 people in the experimental group and the control group each. Experimental method: administering PQQ orally to the patients of experimental group, administering placebo orally to the patients of control group. The duration of the experiment was 3 months, and menstrual conditions (duration of menstrual, consumption and weights of sanitary napkin) were measured and recorded.

[2] = tested on: patients with primary dysmenorrhea; assay: Treatment of patients with primary dysmenorrhea, oral PQQ vs placebo, 3 months; details: for Proportion of people with alleviation in primary dysmenorrhea (self-assessment): 50 people
Description: Experiment number: 100 people have been diagnosed with primary dysmenorrhea, 50 people in the experimental group and the control group. Experimental method: administering PQQ orally to the patients of experimental group, administering placebo orally to the patients of control group. The duration of the experiment was 3 months, and menstrual pain was asked and recorded.

[3] = tested on: patients with secondary dysmenorrhea; assay: Treatment of patients with secondary dysmenorrhea, oral PQQ vs placebo, 3 months; details: for Proportion of people with alleviation in secondary dysmenorrhea: 50 people
Experimental: Experiment number: 100 peoples have been diagnosed with secondary dysmenorrhea, with 50 peoples in the experimental group and the control group each. Experimental method: administering PQQ orally to the patients of experimental group, administering placebo orally to the patients of control group. The duration of the experiment was 3 months, and menstrual pain and pregnancy were asked and recorded. The dysmenorrhea index is determined based on the VAS scoring standard, which means patients self-evaluate the intensity of pain and the degree of psychologically unpleasant experience according to the degree of pain they feel, including: • 0 points: no pain; • 1-3 points: mild pain; • 4-6 points: moderate pain; • 7-9 points: severe pain; • 10 points: unbearable pain.

O=C(O)c1cc(C(=O)O)c2c(n1)C(=O)C(=O)c1cc(C(=O)O)[nH]c1-2 [PQQ, 4,5-dioxo-1H-pyrrolo[2,3-f]quinoline-2,7,9-tricarboxylic acid] was tested, and the “average monthly menstrual bleeding duration after treatment” value ([1]; 3 months oral, FIG. 2) was “about 1 week”, the “decrease of average amount of menstrual bleeding” value ([1]; 3 months oral, FIG. 3 (sanitary napkin consumption)) was “more than 30%” and the “average monthly menstrual bleeding duration at beginning of the experiment” value ([1]; baseline, FIG. 2) was “about 2 weeks”. The “Proportion of people with alleviation in primary dysmenorrhea (self-assessment)” value ([2]; evaluation time 1 month) was 98%, the “Proportion of people with alleviation in primary dysmenorrhea (self-assessment)” value ([2]; evaluation time 3 months) was 100% and the “dysmenorrhea index alleviated compared to beginning of the experiment” value ([2]; experimental group, 3 months) was 100%. The “average dysmenorrhea index (VAS score) change” value ([3]; FIG. 1, during treatment) was “decreased significantly”, the “Proportion of people with alleviation in secondary dysmenorrhea” value ([3]; evaluation time 1 month) was 82% and the “Proportion of people with alleviation in secondary dysmenorrhea” value ([3]; evaluation time 3 months) was 100%. For the same molecule, the “cases that became pregnant” value ([3]; experimental group of 50, 3 months) was 2 cases and the “dysmenorrhea index alleviated compared to the beginning of the experiment” value ([3]; experimental group, 3 months) was 100%.
